Laboratory results as given in patent US20240018119A1, “CARBOXAMIDE DERIVATIVE AND PHARMACEUTICAL COMPOSITION COMPRISING SAME AS ACTIVE INGREDIENT FOR PREVENTING OR TREATING MENTAL ILLNESS” (DAEGU-GYEONGBUK MEDICAL INNOVATION FOUNDATION, priority 2020, published 2024).

Columns and labels:
dopamine transporter = biological target: T1, dopamine transporter (Homo sapiens, UniProt Q01959); assay: Dopamine reuptake inhibition in transporter-transfected HEK-293 cells ([3H]-DA); assay type: cell-based; settings: for IC50: concentration at which Ratio % is 50%, 6 concentrations 1 nM to 1 μM, read-out: Triple reuptake inhibition (IC50, μM) DAT
T1 construct: expressed in transfected cells; host or cells: HEK-293
Summary of the method: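 HEK-293 cells transfected with human DAT cDNA; compound preincubated 15 min at 37 °C in uptake buffer, then buffer containing 20-30 nM [3H]-DA added for 5 min at 37 °C. After ice-cold washes and SDS lysis, radioactivity expressed as % of untreated control; IC50 from six concentrations (1 nM–1 μM).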

male ICR mice [1] = assay: Evaluation on causing sleep disorder, pentobarbital sodium-induced sleep in mice; assay type: in vivo; settings: then pentobarbital sodium 42 mg/kg i.p.; for sleep onset time: vehicle about 225 seconds; for sleep duration: vehicle about 2100 seconds
Procedure: In order to evaluate the causing of sleep disorder or not as the side effect of the compound of Example 35, Example 66 according to the present invention or Comparative Example 1, an experiment was performed as follows, and the results are shown in FIG. 2. Pentobarbital sodium is a drug inducing sleep, and by observing the behavior of sleep-induced animals using the drug, the causing of sleep disorder or not can be evaluated. In addition, caffeine is well-known as a drug causing sleep disorder, and diazepam is well-known as a sleeping pill having sleep retention effect.
As experimental animals, male ICR mice of 3 weeks old were prepared and, 8 mice per group were prepared. A vehicle taking only water, groups intraperitoneally administered once a day for 5 days with 10 mg/kg of caffeine, 2 mg/kg of diazepam, 10 mg/kg of Comparative Example 1, and 10 mg/kg of Example 35 and 10 mg/kg of Example 66, were prepared. […], 42 mg/kg of pentobarbital sodium was intraperitoneally administered to the mice of each group to Induce sleep.
After treatment with pentobarbital sodium, if a mouse was turned upside down showing Its belly, it was considered sleep, and if a mouse changed posture while showing its back, it was considered to wake up completely. Sleep onset time and sleep duration were confirmed.

serotonin transporter = biological target: T2, serotonin transporter (Homo sapiens, UniProt P31645); assay: Serotonin reuptake inhibition in transporter-transfected HEK-293 cells ([3H]-5-HT); assay type: cell-based; settings: for IC50: concentration at which Ratio % is 50%, 6 concentrations 1 nM to 1 μM, read-out: Triple reuptake inhibition (IC50, μM) SERT
T2 construct: expressed in transfected cells; host or cells: HEK-293

male ICR mice [2] = assay: Hyperactivity inhibitory effect, open field test (EthoVision) in MK801-treated mice; assay type: in vivo; settings: 5 mg/kg intraperitoneally 30 minutes before MK801 0.15 mg/kg i.p.; for distance moved: observed 15 minutes, vehicle about 7000 cm, MK801 only about 14000 cm; for movement duration: vehicle about 880 s, MK801 only about 1070 s
Procedure: In order to evaluate the hyperactivity inhibitory effect of the compounds of Example 35 and Example 66 according to the present invention or Comparative Example 1, an experiment was performed as follows, and the results are shown in FIG. 1. An open field test is an experimental method utilized for searching for excess and decline in motor function, calmness, excitement, avoidance degree and toxicity.
The observation of the hyperactivity and behavior analysis of animals were conducted using an EthoVisiorn System (Noldus IT b.v., Netherlands) that is a type of an open field test. The animals used for the experiment were male ICR mice of 4 weeks old. To induce hyperactivity, animal models intraperitoneally administered with 0.15 mg/kg of MK801 (drug name: dizocilpine) were used, and the compounds of Example 35, example 66 or Comparative Example 1 was intraperitoneally administered by 5 mg/kg, 30 minutes ago the administration of MK801. Male ICP mice administered with 10% DMSO and 10% Tween-80 as the solvents dissolving a drug were considered a vehicle, and male ICR mice administered with MK801 […] with the Example Compound or Comparative Compound were considered a positive control. After that, in the center of a test box (40×40×30 cm) manufactured using black acryl, the mice under test were put and allowed to fit for 15 minutes, and behavior patterns were observed, recorded and analyzed for 15 minutes. Comparative analysis was conducted by measuring distance moved and movement duration.

[3] = biological target: T3, norepinephrine transporter (Homo sapiens, UniProt P23975); assay: Norepinephrine reuptake inhibition in transporter-transfected HEK-293 cells ([3H]-NE); assay type: cell-based; settings: for IC50: concentration at which Ratio % is 50%, 6 concentrations 1 nM to 1 μM, read-out: Triple reuptake inhibition (IC50, μM) NET
T3 construct: expressed in transfected cells; host or cells: HEK-293

[4] = 10 mg/kg intraperitoneally once a day for 5 days
[5] = 2 mg/kg intraperitoneally once a day for 5 days

T1 sequence (Q01959 whole entry): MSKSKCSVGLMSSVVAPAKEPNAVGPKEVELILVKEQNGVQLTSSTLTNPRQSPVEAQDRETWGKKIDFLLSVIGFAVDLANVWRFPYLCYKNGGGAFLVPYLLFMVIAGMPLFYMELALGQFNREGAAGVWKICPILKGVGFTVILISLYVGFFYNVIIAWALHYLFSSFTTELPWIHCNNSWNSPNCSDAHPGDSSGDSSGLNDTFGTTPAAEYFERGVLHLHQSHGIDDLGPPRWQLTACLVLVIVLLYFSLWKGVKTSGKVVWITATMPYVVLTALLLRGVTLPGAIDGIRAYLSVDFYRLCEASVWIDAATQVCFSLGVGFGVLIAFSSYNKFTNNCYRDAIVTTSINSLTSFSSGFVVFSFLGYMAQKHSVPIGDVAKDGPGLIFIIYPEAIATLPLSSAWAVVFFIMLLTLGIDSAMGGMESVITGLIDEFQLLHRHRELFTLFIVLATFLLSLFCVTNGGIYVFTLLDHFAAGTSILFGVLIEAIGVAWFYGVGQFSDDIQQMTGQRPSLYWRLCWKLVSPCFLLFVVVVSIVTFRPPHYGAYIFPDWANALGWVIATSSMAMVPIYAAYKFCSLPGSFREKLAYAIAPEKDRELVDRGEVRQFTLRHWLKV
T3 sequence (P23975 whole entry, species assumed): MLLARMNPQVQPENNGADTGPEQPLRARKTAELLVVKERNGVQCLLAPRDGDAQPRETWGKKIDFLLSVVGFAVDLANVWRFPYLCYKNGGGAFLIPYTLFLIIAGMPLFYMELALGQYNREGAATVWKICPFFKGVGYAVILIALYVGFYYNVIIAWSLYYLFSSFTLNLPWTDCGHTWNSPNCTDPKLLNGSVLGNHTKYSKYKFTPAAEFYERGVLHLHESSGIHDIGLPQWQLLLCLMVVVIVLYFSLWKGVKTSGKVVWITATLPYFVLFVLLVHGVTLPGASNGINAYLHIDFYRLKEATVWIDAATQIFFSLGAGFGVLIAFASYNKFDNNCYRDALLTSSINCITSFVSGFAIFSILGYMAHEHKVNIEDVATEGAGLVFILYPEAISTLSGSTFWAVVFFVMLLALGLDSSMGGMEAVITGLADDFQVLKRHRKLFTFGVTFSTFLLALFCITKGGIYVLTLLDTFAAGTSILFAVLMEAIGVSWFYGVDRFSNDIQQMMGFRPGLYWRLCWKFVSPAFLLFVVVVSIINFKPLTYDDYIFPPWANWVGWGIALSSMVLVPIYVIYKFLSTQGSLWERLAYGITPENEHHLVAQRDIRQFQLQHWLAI
T2 sequence (P31645 whole entry): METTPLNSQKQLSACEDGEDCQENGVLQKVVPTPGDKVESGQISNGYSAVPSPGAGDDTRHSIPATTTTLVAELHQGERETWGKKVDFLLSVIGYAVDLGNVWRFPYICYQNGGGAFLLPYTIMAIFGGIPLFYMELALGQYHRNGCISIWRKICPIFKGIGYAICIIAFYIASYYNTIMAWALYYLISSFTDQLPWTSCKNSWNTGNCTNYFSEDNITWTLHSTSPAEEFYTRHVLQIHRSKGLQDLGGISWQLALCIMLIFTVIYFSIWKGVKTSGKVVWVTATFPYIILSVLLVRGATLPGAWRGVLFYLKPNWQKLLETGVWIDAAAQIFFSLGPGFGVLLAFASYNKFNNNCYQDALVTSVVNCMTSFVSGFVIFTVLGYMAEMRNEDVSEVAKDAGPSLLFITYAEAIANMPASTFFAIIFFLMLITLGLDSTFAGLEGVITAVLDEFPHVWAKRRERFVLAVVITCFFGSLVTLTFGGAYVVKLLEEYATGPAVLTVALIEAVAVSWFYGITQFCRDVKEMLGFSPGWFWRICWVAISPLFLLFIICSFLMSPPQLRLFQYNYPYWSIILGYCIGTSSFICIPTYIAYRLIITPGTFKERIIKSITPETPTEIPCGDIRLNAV

| SMILES | IC50 (dopamine transporter) [µM] | sleep disorder as side effect (male ICR mice [1]; [4]) | sleep onset time (male ICR mice [1]; [4]) | sleep duration (male ICR mice [1]; [4]) | IC50 (serotonin transporter) [µM] | hyperactivity of the mice induced with MK801 (male ICR mice [2]) | distance moved (male ICR mice [2]) | movement duration (male ICR mice [2]) | IC50 [3] [µM] | sleep onset time (male ICR mice [1]; [5]) | sleep duration (male ICR mice [1]; [5]) | Triple reuptake inhibition (Ratio %) DAT (dopamine transporter; compound 1 μM, 20-30 nM [3H]-DA, relative to control without compound (100%), lower = more inhibition) [%] | Triple reuptake inhibition (Ratio %) SERT (serotonin transporter; compound 1 μM, [3H]-5-HT, relative to control without compound (100%), lower = more inhibition) [%] | Triple reuptake inhibition (Ratio %) NET ([3]; compound 1 μM, [3H]-NE, relative to control without compound (100%), lower = more inhibition) [%] |
| --- | --- | --- | --- | --- | --- | --- | --- | --- | --- | --- | --- | --- | --- | --- |
| O=C(NCCN1CCC(Cc2ccccc2)CC1)c1cc2ccccc2[nH]1 [Comparative Example 1, N-(2-(4-benzylpiperidin-1-yl)ethyl)-1H-indol-2-carboxamide, reference compound] | 4.18 | induced sleep disorder | about 300 seconds | about 1100 seconds | 5.35 | not inhibited | about 13400 cm | about 1100 seconds | 0.524 |  |  |  |  |  |
| CN1C(=O)CN=C(c2ccccc2)c2cc(Cl)ccc21 [diazepam] |  |  |  |  |  |  |  |  |  | about 170 seconds | about 2900 seconds |  |  |  |
| COc1cc2cc(C(=O)NCCN3CCC(Cc4ccccc4)CC3)[nH]c2cc1OC [Example 35, N-(2-(4-benzylpiperidin-1-yl)ethyl)-5,6-dimethoxy-1H-indol-2-carboxamide] | 0.248 |  |  |  | 0.415 | significantly inhibited | about 10000 cm | about 950 seconds | 0.386 |  |  | 7.77 | 36.24 | 16.10 |
